The subject of experiment [1] is CD11b+ macrophages in injured arteries. Put plainly: Flow cytometric quantitation of arterial macrophages in injured arteries. Format: in vivo, rat. The note with it: 7 days after balloon injury; LA1 1 mg/kg/d; ED7 1 and 3.3 mg/kg/d. How it is done: Agonist treated and control balloon-injured Fisher 344 rats were sacrificed 7 days post surgery at the onset of inflammation. The injured and non-injured iliac arteries were microdissected and digested with Collagenase/Elastase mix (Worthington Biochemical, NY) in DMEM containing 2% FBS for 2 hours at 37° C. The resulting single cell suspension was washed with cold PBS containing 2% FBS and filtered through […] sieve. Cells were re-suspended cold PBS containing 2% FBS at a concentration of 10^6 cells per 100 μl and stained with biotinylated anti-rat CD11b antibody (clone WT.5, BD Biosciences) for 1 hour at 4° C. […] Cells were washed twice with the assay buffer and analyzed using FACS II Canto cytometer and the data were analyzed using FlowJo (Tree Star Inc.) software. […]
Next, to determine whether either type of agonist (chemical LA1 and biologic activating antibody) has a therapeutic advantage over the other, a head-to-head comparison was performed using this in vivo model. […] Next, the arteries were analyzed to quantify the number of infiltrated macrophages in the presence of agonists LA1 or ED7 and compared it to vehicle treated animals. The arteries were harvested from animals 7 days after balloon injury and single cell suspensions were analyzed by flow cytometry (using anti-rat CD11b antibody WT.5) to quantitate CD11b+ macrophages in each sample. […]
(Flow cytometry measures light scatter and fluorescence of single cells or particles in a stream.)

The target in experiment [2] is T1, CD11b/CD18 (Homo sapiens, UniProt P11215). Particulars: earlier described [55]; cited from earlier work.
Experiment [3] addresses T1, CD11b/CD18. Put plainly: Immunofluorescence microscopy of CD11b/CD18 clustering on K562 WT cells. In kind it is cell-based. On the set-up: K562 cells stably transfected with plasmid encoding wild-type integrin CD11b/CD18; expressed in transfected cells. How it is done:
To visualize changes upon ligand binding, fibrinogen (50 μg/mL) was also added to the cell suspension media in a second set of incubations. The cells were fixed in suspension and incubated with mAb 184, which is specific for CD11b/CD18, followed by Alexa Fluor 488-conjugated goat antibody against mouse Ig (Sigma). Fluorescence images were recorded with a Leica DMI16000 deconvolution microscope using an HCX APO 40×/0.75 DRY objective with a DCF360FX camera and with Leica LAS-AF software. A 3-dimensional representation of CD11b/CD18 fluorescence intensity and the analysis of the number of CD11b/CD18 clusters per cell was performed using ImageJ software as described. Clustering determination was carried out by counting individual fluorescent peaks that were projected from the basal to the apical side of the cell and were at least 50% above the base line levels. The images presented are representative of at least 20 cells analyzed for each condition from at least three independent experiments.
Therefore, to investigate, a combination of confocal microscopy (to study clustering) and western blotting assays (to study intracellular signaling) using K562 WT cells were used. First, CD11b/CD18 cell-surface distribution and macro clustering was studied under various conditions using confocal microscopy. K562 WT cells in suspension were incubated with various agonists, fixed with paraformaldehyde and the surface expressed CD11b/CD18 was fluorescently stained with anti-CD11b/CD18 mAb 1B4. […] The fluorescence images shown are representative of three independent experiments. […] Also shown below each image is a 3D representation of CD11b fluorescence intensity for selected cells, analyzed in ImageJ In FIG. 5B, data shown are mean±SEM from >40 cells per condition and from >3 independent experiments for each condition. ***p<0.0001, ns=not significant.

As to `O=C(O)c1ccc(-c2ccc(/C=C3\SC(=S)N(Cc4ccccc4)C3=O)o2)cc1` [LA1], the “CD11b+ macrophages in injured arteries vs vehicle” value in experiment [1] is on record as “significantly less CD11b/CD18 macrophages”. Moreover, the “affinity for CD11b/CD18” value at CD11b/CD18 [2] was “high-affinity”. In addition, the “CD11b/CD18 macro clustering on cell surface” value on CD11b/CD18 [3] (absence of ligand fibrinogen, 45 minutes at 37° C.) is reported as “did not induce any significant CD11b/CD18 macro clustering”; at CD11b/CD18 [3] (presence of fibrinogen 50 μg/mL) it was “did so in the presence of fibrinogen”.

The record behind these values is patent US10239871B2, “Compounds and methods for regulating integrins” (ADHAERE PHARMACEUTICALS, INC., priority 2012, dated 2019).
